Results published in US20150258106A1, “METHODS FOR ACUTE AND LONG-TERM TREATMENT OF SUBSTANCE ABUSE” (DEMERX, INC., priority 2014, published 2015).

Assay: Pharmacokinetics of noribogaine in healthy volunteers, ascending single oral dose (plasma noribogaine and noribogaine glucuronide)
Conditions: for AUC0-216 / AUC0-∞ / Cmax / Tmax / t1/2: healthy male volunteers, n = 6, mean (SD)
[1] = glucuronide in plasma after single oral 30 mg noribogaine dose
[2] = glucuronide in plasma after single oral 60 mg noribogaine dose
[3] = plasma noribogaine glucuronide, 30 mg and 60 mg dose groups

CC[C@H]1C[C@@H]2C[C@H]3c4[nH]c5ccc(OC6OC(C(=O)O)C(O)C(O)C6O)cc5c4CCN(C2)[C@@H]13 (some centres unmarked) [Noribogaine glucuronide, noribogaine glucuronide]
proportion of noribogaine glucuronide Cmax and AUC relative to noribogaine (both dose groups (30 mg, 60 mg)): 3-4% | AUC0-216 [1]: 25.7 (9.1) ng · hr/ml | AUC0-∞ [1]: 25.8 (9.3) ng · hr/ml | Cmax [1]: 1.8 (0.6) ng/ml | Tmax [1]: 3.0 (0.6) hr | t1/2 [1]: 20.6 (4.9) hr | AUC0-216 [2]: 65.0 (21.5) ng · hr/ml | AUC0-∞ [2]: 67.1 (21.9) ng · hr/ml | Cmax [2]: 4.1 (1.2) ng/ml | Tmax [2]: 3.8 (1.2) hr | t1/2 [2]: 23.1 (3.0) hr | Mean half-life [3]: 21 to 23 h | time of peak concentrations after noribogaine dosing [3]: 3 to 4 h | time by which noribogaine glucuronide was detected in all subjects (plasma, after 30 mg or 60 mg noribogaine dose): ≤ 0.75 h
